Patent US20250353827A1, “INDOLINE DERIVATIVES AS SEROTONERGIC AGENTS USEFUL FOR THE TREATMENT OF DISORDERS RELATED THERETO” (MINDSET PHARMA INC., priority 2022, published 2025)
Values joined by “and” are separate entries in the source; they are usually repeats but may differ in a detail not shown here. Identical values can stand only once. Like-named read-outs stand apart in the source and are kept apart here.

Experiments:
[1] = target: T1, human 5-HT2A (h5-HT2A) receptor (Homo sapiens, UniProt P28223); experiment: FLIPR assay, human 5-HT2A receptor under agonist mode; type: cell-based; settings: for RFU@10 μM: RFU=Fmax−Fmin
T1 construct: expressed in transfected cells; cultured under G418 and hygromycin B selection
T1 sequence (P28223 whole entry): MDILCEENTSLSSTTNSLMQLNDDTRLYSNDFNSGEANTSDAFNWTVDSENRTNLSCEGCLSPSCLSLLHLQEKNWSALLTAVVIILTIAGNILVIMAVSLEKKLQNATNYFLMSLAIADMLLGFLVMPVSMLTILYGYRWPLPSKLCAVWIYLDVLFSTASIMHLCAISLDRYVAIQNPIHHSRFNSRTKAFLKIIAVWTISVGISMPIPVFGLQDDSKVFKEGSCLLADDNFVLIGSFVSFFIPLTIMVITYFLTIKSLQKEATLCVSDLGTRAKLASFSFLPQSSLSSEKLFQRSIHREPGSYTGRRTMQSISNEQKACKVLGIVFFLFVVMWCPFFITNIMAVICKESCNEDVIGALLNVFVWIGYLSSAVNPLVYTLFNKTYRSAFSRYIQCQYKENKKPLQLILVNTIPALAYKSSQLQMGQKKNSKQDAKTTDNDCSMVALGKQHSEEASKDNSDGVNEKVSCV
Description: I. Assessment of the Effect of Exemplary Compounds of Formula I Targeting on Human 5-HT2A (h5-HT2A) Receptor Under Agonist Mode
• 1. Cells were cultured in cell culture medium (DMEM containing 10% FBS, 1×penicillin-streptomycin 300 μg/ml G418 and 100 μg/ml hygromycin B) at 37° C., 5% (v/v) CO2. • 2. One day before the assays, the cells were detached using TrypLE™ Express and cells were counted using cell counter. Only cells with >85% viability were used for the assay. • 3. 20000 cells/well were seeded in 30 μl/well culture medium to a 384-well cell plate and cells were incubated overnight at 37° C., 5% (v/v) CO2. • 4. On the assay day, 2×dye solution was prepared following the manual of the FLIPR® Calcium 6 Assay Kit: i. The dye was diluted with assay buffer (20 mM HEPES in 1× HBSS, PH7.4); ii. Probenecid was added to the final concentration of 5 mM; iii. Vortex vigorously for 1-2 minutes. • 5. Medium was removed from cell plate by flicking the cell plate on towel papers. • 6. 10 μl of assay buffer and 10 μl of 2×dye solution was added to each well of the cell plate. • 7. The cell plate was placed on plate shaker, the plate was agitated at 600 rpm for 2 minutes. The plate was incubated at 37° C. for 2 hours followed by additional 15-minute incubation at 25° C. • 8. 3×compound in assay buffer was prepared: a. Reference compounds were diluted to required concentration with DMSO. The compounds were added to a 384-well compound plate; b. Serial dilutions were performed; c. 10 mM test compounds were added to the compound plate, and 3-fold serial dilutions were performed. d. Transfer 60 nl/well of compounds from source plate to a 384-well compound plate (Corning, 3657) by using an Echo; e. Add 20 μl/well assay buffer to the compound plate; f. Mix the plate on plate shaker for 2 mins; • 9. The cell plate, compound plate and tips were put into FLIPR, 10 μl of 3× compound was transferred to the cell plate per well with FLIPR.
• i. The normalized fluorescence reading (RFU) was calculated as shown below, where Fmax and Fmin stand for maximum and minimum of calcium signal during defined time window: RFU=Fmax−Fmin. • ii. Calculate the percentage activation using following equation:
[formula] • Iii. Calculate EC50 by fitting % activation against log of compound concentrations with Hill equation using XLfit.
Exemplary compounds of Formula I were evaluated functionally using FLIPR assay for their effect on h5-HT2A receptor under agonist mode.

[2] = Liver microsomes stability, human; settings: for Predicted hepatic CL: human liver microsomes; for Remaining Percentage / CLint scaled at 2 μM / half-life at 2 μM / microsomal CLint at 2 μM: human; for CLint scaled at 2 μM / half-life at 2 μM / microsomal CLint at 2 μM: pooled liver microsomes
Description: (§1) The objective of this study was to estimate in vitro metabolic stability of representative compounds of the application in pooled human and male mouse liver microsomes. The concentrations of parent compounds in reaction systems were evaluated by LC-MS/MS for estimating the stability in pooled human and male mouse liver microsomes. The in vitro intrinsic clearances of test compounds were determined as well.
(§2) A master solution in the “Incubation Plate” containing phosphate buffer, ultra-pure H2O, MgCl2 solution and liver microsomes was made according to Table 3. The mixture was pre-warmed at 37° C. water bath for 5 minutes.
(§3) 40 μL of 10 mM NADPH solution was added to each well. The final concentration of NADPH was 1 mM. The negative control samples were prepared by replacing NADPH with 40 μL of ultra-pure H2O. Samples were prepared in duplicate. Negative controls were prepared in singlet.
(§4) The reaction was started with the addition of 4 μL of 200 μM test compounds or control compounds to each master solution to get the final concentration of 2 μM. This study was performed in duplicate.
(§5) Aliquots of 50 μL were taken from the reaction solution at 0, 15, 30, 45 and 60 minutes. The reaction solutions were stopped by the addition of 4 volumes of cold methanol with IS (100 nM alprazolam, 200 nM imipramine, 200 nM labetalol and 2 μM ketoprofen). Samples were centrifuged at 3,220 g for 40 minutes. Aliquot of 90 μL of the supernatant was mixed with 90 μL of ultra-pure H2O and then was used for LC-MS/MS analysis.
(§6) LC/MS analysis was performed for all samples from this study using a Shimadzu liquid chromatograph separation system equipped with degasser DGU-20A5R; solvent delivery unit LC-30AD; system controller SIL-30AC; column oven CTO-30A; CTC Analytics HTC PAL System. Mass spectrometric analysis was performed using a Triple Quad™ 5500 instrument.
(§7) All calculations were carried out using Microsoft Excel. Peak areas were determined from extracted ion chromatograms. The slope value, k, was determined by linear regression of the natural logarithm of the remaining percentage of the parent drug vs. incubation time curve.
(§8) The in vitro half-life (in vitro t1/2) was determined from the slope value:
(§9) Conversion of the in vitro t1/2 (min) into the in vitro intrinsic clearance (in vitro CLint, in μL/min/mg proteins) was done using the following equation (mean of duplicate determinations): […]

[3] = Liver microsomes stability, mouse; settings: for CLint scaled at 2 μM / half-life at 2 μM / microsomal CLint at 2 μM: male, microsomes; for CLint scaled at 2 μM / half-life at 2 μM / microsomal CLint at 2 μM / Remaining Percentage: mouse
Description: as §1, §2, §3, §4, §5, §6, §7, §8, §9

[4] = Liver microsomes stability, rat; settings: for Remaining Percentage / CLint scaled at 2 μM / Predicted hepatic CL / half-life at 2 μM / microsomal CLint at 2 μM: rat; for CLint scaled at 2 μM / Predicted hepatic CL / half-life at 2 μM / microsomal CLint at 2 μM: liver microsomes
Male, C57BL/6J mice = experiment: Mouse head twitch; type: in vivo; settings: for head twitches (mean): counted over 1 hr, male C57BL/6J mice; for other behavioural signs (locomotion, core body temperature, 5-HT syndrome) in words: psilocybin 3 and 10 mg/kg, 5-MeO DMT 3-30 mg/kg, II-1 0.3-30 mg/kg
Description: The effect of different doses of representative compounds of Formula I were evaluated on head-twitch response (HTR) and other behavioural responses as behavior-based models of psychedelic activity.
Male, C57BL/6J mice (body weight range 20-30 g) were dosed with the appropriate dose of test article, and following a 1-minute pre-treatment time, placed in individual observation chambers. Animals were visually assessed for the incidence head twitches continuously over a 1 hr period. Head twitches were defined as a rapid jerk of the head which was not elicited by an external tactile stimulus (Come and Pickering, Psychopharmacologia, 1967, 11(1): 65-78). Each head twitch was individually counted by a trained observer, and the data was expressed as the mean±SEM of 6-10 mice per group. Mice were used in a single experiment only.
The head twitch response of exemplary compound II-1 (1-30 mg/kg SC) was compared to 5-MeO DMT and psilocybin (FIG. 1, Table 6).

Row | Structure (SMILES) | RFU@10 μM ([1]; 5-HT2A (FLIPR)) | EC50 ([1]; 5-HT2A (FLIPR), read-out: EC50) [nM] | Predicted hepatic CL [2] [mL/min/kg] | Remaining Percentage ([2]; With NADPH, 0 min) [%] | Remaining Percentage ([2]; With NADPH, 30 min) [%] | Remaining Percentage ([2]; With NADPH, 60 min) [%] | Remaining Percentage ([2]; Without NADPH, 0 min) [%] | Remaining Percentage ([2]; Without NADPH, 30 min) [%] | Remaining Percentage ([2]; Without NADPH, 60 min) [%] | half-life at 2 μM [3] [min] | microsomal CLint at 2 μM [3] [µL/min/mg] | Predicted hepatic CL ([3]; mouse liver microsomes) [mL/min/kg] | Remaining Percentage ([3]; With NADPH, 0 min) [%] | Remaining Percentage ([3]; With NADPH, 30 min) [%] | Remaining Percentage ([3]; With NADPH, 60 min) [%] | Remaining Percentage ([3]; Without NADPH, 0 min) [%] | Remaining Percentage ([3]; Without NADPH, 30 min) [%] | Remaining Percentage ([3]; Without NADPH, 60 min) [%] | Remaining Percentage ([4]; With NADPH, 0 min) [%] | Remaining Percentage ([4]; With NADPH, 30 min) [%] | further results
1 | [2H]C([2H])([2H])Oc1ccc2c(c1)C(CCN(C)C)CN2 (stereo not shown) [Compound I-11, 2-(5-(Methoxy-d3)indolin-3-yl)-N,N-dimethylethan-1-amine] | 980 | 19 | 12.66 | 100.00 | 72.72 | 45.89 | 100.00 | 97.58 | 92.20 | 18.2 | 76.3 | 70.89 | 100.00 | 31.50 | 10.14 | 100.00 | 94.39 | 80.37 | 100.00 | 22.43 | CLint scaled at 2 μM [2]: 32.6 mL/min/kg; half-life at 2 μM [2]: 53.4 min; microsomal CLint at 2 μM [2]: 26 µL/min/mg; CLint scaled at 2 μM [3]: 334 mL/min/kg; Remaining Percentage ([4]; With NADPH, 60 min): 6.59%; Remaining Percentage ([4]; Without NADPH, 0 min): 100.00%; Remaining Percentage ([4]; Without NADPH, 30 min): 102.53%; Remaining Percentage ([4]; Without NADPH, 60 min): 85.67%; CLint scaled at 2 μM [4]: 162 mL/min/kg; Predicted hepatic CL [4]: 41.20 mL/min/kg; half-life at 2 μM [4]: 15.3 min; microsomal CLint at 2 μM [4]: 90.7 µL/min/mg
2 | COc1cc2c(cc1OC)C(CCN(C)C)CN2 (stereo not shown) [Compound I-33, 2-(5,6-Dimethoxyindolin-3-yl)-N,N-dimethylethan-1-amine] | 286 |  |  |  |  |  |  |  |  |  |  |  |  |  |  |  |  |  |  |  | 
3 | CN(C)CCC1CNc2ccccc21 (stereo not shown) [II-2, 2-(Indolin-3-yl)-N,N-dimethylethan-1-amine] | 544 | 1230 | 9.09 | 100.00 | 87.48 | 67.85 | 100.00 | 100.69 | 86.47 | 36.7 | 37.7 | 58.25 | 100.00 | 57.37 | 32.23 | 100.00 | 99.08 | 86.24 | 100.00 | 26.32 | CLint scaled at 2 μM [2]: 16.2 mL/min/kg; half-life at 2 μM [2]: 107 min; microsomal CLint at 2 μM [2]: 12.9 µL/min/mg; CLint scaled at 2 μM [3]: 165 mL/min/kg; Remaining Percentage ([4]; With NADPH, 60 min): 10.29%; Remaining Percentage ([4]; Without NADPH, 0 min): 100.00%; Remaining Percentage ([4]; Without NADPH, 30 min): 92.41%; Remaining Percentage ([4]; Without NADPH, 60 min): 83.54%; CLint scaled at 2 μM [4]: 136 mL/min/kg; Predicted hepatic CL [4]: 39.25 mL/min/kg; half-life at 2 μM [4]: 18.3 min; microsomal CLint at 2 μM [4]: 75.8 µL/min/mg
4 | COc1ccc2[nH]cc(CCN(C)C)c2c1 [5-MeO DMT] |  |  |  |  |  |  |  |  |  |  |  |  |  |  |  |  |  |  |  |  | head twitches (mean) (Male, C57BL/6J mice; 1 mg/kg SC): 3.0; head twitches (mean) (Male, C57BL/6J mice; 3 mg/kg SC): 4.2; head twitches (mean) (Male, C57BL/6J mice; 10 mg/kg SC): 7.8; head twitches (mean) (Male, C57BL/6J mice; 30 mg/kg SC): 12.3; head twitch response (in words) (Male, C57BL/6J mice; SC, dose range as in the sentence): monotonic increase in head twitches; other behavioural signs (locomotion, core body temperature, 5-HT syndrome) in words (Male, C57BL/6J mice; SC): behavioural signs associated with 5-HT syndrome
5 | O=C(O)Cc1ccccc1Nc1c(Cl)cccc1Cl [Diclofenac] |  |  | 18.43 | 100.00 | 4.80 | 1.80 | 100.00 | 91.86 | 91.86 | 43.9 | 31.6 | 54.52 | 100.00 | 51.50 | 38.74 | 100.00 | 105.81 | 102.49 | 100.00 | 10.72 | Scaled-up CLint ([3]; mouse liver microsomes): 138.28 mL/min/kg; T1/2 ([4]; rat liver microsomes, 2 μM, 0.5 mg/mL): 14.62 min; Remaining Percentage ([4]; With NADPH, 60 min): 5.82%; Remaining Percentage ([4]; Without NADPH, 0 min): 100.00%; Remaining Percentage ([4]; Without NADPH, 30 min): 100.00%; Remaining Percentage ([4]; Without NADPH, 60 min): 96.90%; Predicted hepatic CL [4]: 41.66 mL/min/kg; microsomal CLint at 2 μM [4]: 94.8 µL/min/mg
6 | CN(C)CCc1c[nH]c2cccc(O)c12 [Psilocin, psilocin, reference compound] | 416 and 308 |  |  |  |  |  |  |  |  |  |  |  |  |  |  |  |  |  |  |  | 
7 | COc1ccc2c(c1)C(CCN(C)C)CN2C (stereo not shown) [Compound I-3, 2-(5-Methoxy-1-methylindolin-3-yl)-N,N-dimethylethan-1-amine] | 1014 | 404 |  |  |  |  |  |  |  |  |  |  |  |  |  |  |  |  |  |  | 
8 | CN(C)CCc1c[nH]c2cccc(OP(=O)(O)O)c12 [psilocybin] |  |  |  |  |  |  |  |  |  |  |  |  |  |  |  |  |  |  |  |  | head twitches (mean) (Male, C57BL/6J mice; 0.1 mg/kg SC): 4.8; head twitches (mean) (Male, C57BL/6J mice; 0.3 mg/kg SC): 6.3; head twitches (mean) (Male, C57BL/6J mice; 1 mg/kg SC): 16.3; head twitches (mean) (Male, C57BL/6J mice; 3 mg/kg SC): 7.8; head twitches (mean) (Male, C57BL/6J mice; 10 mg/kg SC): 5.5; dose at which head twitch response reached a peak (Male, C57BL/6J mice; SC, 0.1-10 mg/kg tested): 1 mg/kg; other behavioural signs (locomotion, core body temperature, 5-HT syndrome) in words (Male, C57BL/6J mice; SC): decreased locomotion and decreased core body temperature
9 | CN(C)CCc1c[nH]c2ccccc12 [DMT, N,N-dimethyltryptamine, reference compound] | 381 |  |  |  |  |  |  |  |  |  |  |  |  |  |  |  |  |  |  |  | EC50 ([1]; EC50, 5-HT2A (FLIPR)): 364 nM
